Results published in ChEMBL document CHEMBL5260828, “Amphiphilic glycoconjugates as potential anti-cancer chemotherapeutics” (Eur J Med Chem, 2018).
In brackets after ≈: the same amount, converted by molar mass.

What follows are molecules tested on P388 (assay: Cytotoxicity against mouse P388 cells). Conditions: Mus musculus, P388; read-out: IC50.
Assay type: functional, cell-based

**Q.** For `CO[C@@H]1[C@H](O[C@@H]2CO[C@@H](O[C@@H]3[C@@H](O)[C@H](O)CO[C@H]3N3C(=O)/C(=C(O)/C=C/C=C/C=C/C=C/C=C(Cl)/C=C/C=C/C=C/[C@@H]4O[C@H](C)C[C@@H]4Cl)C(=O)[C@@H]3CC(N)=O)[C@@H](O)[C@@H]2O)O[C@H](C)[C@H]1O`, which IC50 is on record?
**A.** 0.2 µg/mL (≈ 0.213 µM)

**Q.** How did the IC50 turn out when `CO[C@@H]1[C@H](O[C@@H]2CO[C@@H](O[C@@H]3[C@@H](O)[C@H](O)CO[C@H]3N3C(=O)/C(=C(O)/C=C/C=C/C=C/C=C/C=C(Cl)/C=C/C=C/[C@@H]4O[C@H](C)C[C@@H]4Cl)C(=O)[C@@H]3CC(N)=O)[C@@H](O)[C@@H]2O)O[C@H](C)[C@H]1O` was run?
**A.** 0.05 µg/mL (≈ 0.0547 µM)

**Q.** How did the IC50 turn out when `CO[C@@H]1[C@H](O[C@@H]2CO[C@@H](O[C@@H]3[C@@H](O)[C@H](O)CO[C@H]3N3C(=O)/C(=C(O)/C=C/C=C/C=C/C=C/C=C(Cl)/C=C/C=C/[C@H]4O[C@H](C)C[C@@H]4Cl)C(=O)[C@@H]3CC(N)=O)[C@@H](O)[C@@H]2O)O[C@H](C)[C@H]1O` was run?
**A.** 0.2 µg/mL (≈ 0.219 µM)

**Q.** How did the IC50 turn out when `C[C@@H]1C[C@H](Cl)[C@H](/C=C/C=C/C=C/C(Cl)=C/C=C/C=C/C=C/C=C/C(O)=C2\C(=O)[C@H](CC(N)=O)N([C@@H]3OC[C@@H](O)[C@H](O)[C@H]3O[C@@H]3OC[C@@H](O[C@@H]4O[C@H](C)[C@@H](O)[C@@H]4O)[C@@H](O)[C@@H]3O)C2=O)O1` was run?
**A.** > 5 µg/mL

**Q.** Which IC50 does the source give for `C[C@@H]1C[C@H](Cl)[C@@H](/C(Cl)=C/C=C/C(Cl)=C/C=C/C=C/C=C/C=C/C(O)=C2\C(=O)[C@H](CC(N)=O)N([C@@H]3OC[C@@H](O)[C@H](O)[C@H]3O[C@@H]3OC[C@@H](O[C@@H]4O[C@H](C)[C@@H](O)[C@@H]4O)[C@@H](O)[C@@H]3O)C2=O)O1` here?
**A.** 0.2 µg/mL (≈ 0.214 µM)

**Q.** How did the IC50 turn out when `CO[C@@H]1[C@H](O[C@@H]2CO[C@@H](O[C@@H]3[C@@H](O)[C@H](O)CO[C@H]3N3C(=O)/C(=C(O)/C=C/C=C/C=C/C=C/C=C(Cl)/C=C/C=C(\Cl)[C@H]4O[C@H](C)C[C@@H]4Cl)C(=O)[C@@H]3CC(N)=O)[C@@H](O)[C@@H]2O)O[C@H](C)[C@H]1O` was run?
**A.** 0.2 µg/mL (≈ 0.211 µM)

These molecules were tested on KB (assay: Cytotoxicity against human KB cells assessed as inhibition of cell growth by measuring effective dose). Conditions: read-out: ED50 (the source's name).
Assay type: functional

**Q.** `C/C=C(\C)C(=O)O[C@H]1[C@H](O)[C@@H](O)[C@H](O[C@@H]2[C@H]3OC(=O)CCCCCCCCC[C@H](CCCCC)O[C@@H]4O[C@H](C)[C@@H](O)[C@H](O)[C@H]4O[C@@H]4O[C@H](COC(=O)[C@@H](C)[C@H](C)O)[C@@H](O)[C@H](O)[C@H]4O[C@H](O[C@H]2C)[C@@H]3OC(=O)C(C)C)O[C@@H]1C` [ORIZABIN XIII] was tested. Which EC50 did it give?
**A.** 1 µg/mL (≈ 0.903 µM)

**Q.** `C/C=C(\C)C(=O)O[C@H]1[C@H](O)[C@@H](O)[C@H](O[C@@H]2[C@H]3OC(=O)CCCCCCCCC[C@H](CCCCC)O[C@@H]4O[C@H](C)[C@@H](O)[C@H](O)[C@H]4O[C@@H]4O[C@H](COC(=O)[C@H](C)[C@@H](C)O)[C@@H](O)[C@H](O)[C@H]4O[C@H](O[C@H]2C)[C@@H]3OC(=O)C(C)C)O[C@@H]1C` [ORIZABIN XII] was tested. Which EC50 did it give?
**A.** 1 µg/mL (≈ 0.903 µM)

**Q.** With `C/C=C(\C)C(=O)O[C@H]1[C@H](O)[C@@H](O)[C@H](O[C@@H]2[C@H]3OC(=O)CCCCCCCCC[C@H](CCCCC)O[C@@H]4O[C@H](C)[C@@H](O)[C@H](O)[C@H]4O[C@@H]4O[C@H](COC(=O)[C@@H](C)CC)[C@@H](O)[C@H](O)[C@H]4O[C@H](O[C@H]2C)[C@@H]3OC(=O)[C@H](C)[C@@H](C)O)O[C@@H]1C` [ORIZABIN XIV] as the molecule, how does the EC50 read?
**A.** 1 µg/mL (≈ 0.892 µM)

**Q.** How did the EC50 turn out when `CCCCC[C@H]1CCCCCCCCCC(=O)O[C@@H]2[C@@H](O[C@@H]3O[C@H](C)[C@@H](OC(=O)[C@@H](C)CC)[C@H](O)[C@H]3O)[C@H](C)O[C@@H](O[C@H]3[C@H](O[C@H]4[C@H](O1)O[C@H](C)[C@@H](O)[C@@H]4O)O[C@H](COC(=O)[C@@H](C)CC)[C@@H](O)[C@@H]3O)[C@@H]2OC(=O)[C@@H](C)[C@H](C)O` [ORIZABIN XIX] was run?
**A.** 1 µg/mL (≈ 0.89 µM)

**Q.** For `C/C=C(\C)C(=O)O[C@H]1[C@H](O)[C@@H](O)[C@H](O[C@@H]2[C@H]3OC(=O)CCCCCCCCC[C@H](CCCCC)O[C@@H]4O[C@H](C)[C@@H](O)[C@H](O)[C@H]4O[C@@H]4O[C@H](COC(=O)C(C)C)[C@@H](O)[C@H](O)[C@H]4O[C@H](O[C@H]2C)[C@@H]3OC(=O)[C@@H](C)[C@H](C)O)O[C@@H]1C` [ORIZABIN XI], which EC50 is on record?
**A.** 1 µg/mL (≈ 0.903 µM)

**Q.** With `CCCCC[C@H]1CCCCCCCCCC(=O)O[C@@H]2[C@@H](O[C@@H]3O[C@H](C)[C@@H](OC(=O)[C@@H](C)CC)[C@H](O)[C@H]3O)[C@H](C)O[C@@H](O[C@H]3[C@H](O[C@H]4[C@H](O1)O[C@H](C)[C@@H](O)[C@@H]4O)O[C@H](COC(=O)[C@@H](C)CC)[C@@H](O)[C@@H]3O)[C@@H]2OC(=O)[C@H](C)[C@@H](C)O` [ORIZABIN XVIII] as the molecule, how does the EC50 read?
**A.** 1 µg/mL (≈ 0.89 µM)

**Q.** Which EC50 does the source give for `C/C=C(\C)C(=O)O[C@H]1[C@H](O)[C@@H](O)[C@H](O[C@@H]2[C@H]3OC(=O)CCCCCCCCC[C@H](CCCCC)O[C@@H]4O[C@H](C)[C@@H](O)[C@H](O)[C@H]4O[C@@H]4O[C@H](COC(=O)[C@@H](C)[C@H](C)O)[C@@H](O)[C@H](O)[C@H]4O[C@H](O[C@H]2C)[C@@H]3OC(=O)[C@@H](C)CC)O[C@@H]1C` [ORIZABIN XVII] here?
**A.** 1 µg/mL (≈ 0.892 µM)

**Q.** How did the EC50 turn out when `C/C=C(\C)C(=O)O[C@H]1[C@H](O)[C@@H](O)[C@H](O[C@@H]2[C@H]3OC(=O)CCCCCCCCC[C@H](CCCCC)O[C@@H]4O[C@H](C)[C@@H](O)[C@H](O)[C@H]4O[C@@H]4O[C@H](COC(=O)[C@H](C)[C@@H](C)O)[C@@H](O)[C@H](O)[C@H]4O[C@H](O[C@H]2C)[C@@H]3OC(=O)[C@@H](C)CC)O[C@@H]1C` [ORIZABIN XVI] was run?
**A.** 1 µg/mL (≈ 0.892 µM)

**Q.** For `C/C=C(\C)C(=O)O[C@H]1[C@H](O)[C@@H](O)[C@H](O[C@@H]2[C@H]3OC(=O)CCCCCCCCC[C@H](CCCCC)O[C@@H]4O[C@H](C)[C@@H](O)[C@H](O)[C@H]4O[C@@H]4O[C@H](COC(=O)[C@@H](C)CC)[C@@H](O)[C@H](O)[C@H]4O[C@H](O[C@H]2C)[C@@H]3OC(=O)[C@@H](C)[C@H](C)O)O[C@@H]1C` [ORIZABIN XV], which EC50 is on record?
**A.** 1 µg/mL (≈ 0.892 µM)

**Q.** With `CCCCC[C@H]1CCCCCCCCCC(=O)O[C@@H]2[C@@H](O[C@@H]3O[C@H](C)[C@@H](OC(=O)[C@@H](C)CC)[C@H](O)[C@H]3O)[C@H](C)O[C@@H](O[C@H]3[C@H](O[C@H]4[C@H](O1)O[C@H](C)[C@@H](O)[C@@H]4O)O[C@H](COC(=O)[C@@H](C)[C@H](C)O)[C@@H](O)[C@@H]3O)[C@@H]2OC(=O)[C@@H](C)CC` [ORIZABIN XXI] as the molecule, how does the EC50 read?
**A.** 1 µg/mL (≈ 0.89 µM)

**Q.** For `CCCCC[C@H]1CCCCCCCCCC(=O)O[C@@H]2[C@@H](O[C@@H]3O[C@H](C)[C@@H](OC(=O)[C@@H](C)CC)[C@H](O)[C@H]3O)[C@H](C)O[C@@H](O[C@H]3[C@H](O[C@H]4[C@H](O1)O[C@H](C)[C@@H](O)[C@@H]4O)O[C@H](COC(=O)[C@H](C)[C@@H](C)O)[C@@H](O)[C@@H]3O)[C@@H]2OC(=O)[C@@H](C)CC` [ORIZABIN XX], which EC50 is on record?
**A.** 1 µg/mL (≈ 0.89 µM)

**Q.** How did the EC50 turn out when `C/C=C(\C)C(=O)O[C@H]1[C@H](O)[C@@H](O)[C@H](O[C@@H]2[C@H]3OC(=O)CCCCCCCCC[C@H](CCCCC)O[C@@H]4O[C@H](C)[C@@H](O)[C@H](O)[C@H]4O[C@@H]4O[C@H](COC(=O)C(C)C)[C@@H](O)[C@H](O)[C@H]4O[C@H](O[C@H]2C)[C@@H]3OC(=O)[C@H](C)[C@@H](C)O)O[C@@H]1C` [ORIZABIN X] was run?
**A.** 1 µg/mL (≈ 0.903 µM)
